Test results: PubChem BioAssay (NCI)
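Results reflect a 48-hour exposure of cells in 96-well plates to compound at five concentrations. Abbreviation: GI50, concentration required for 50% inhibition of growth. The concentration for full growth arrest is given as TGI.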

Columns and labels:
Assay in all cases: growth of human tumour cells (NCI), 48 h
OVCAR-3 ovarian = system: OVCAR-3 ovarian
U251 CNS = system: U251 CNS
NCI-H23 lung = system: NCI-H23 lung
SNB-19 CNS = system: SNB-19 CNS
K-562 leukemia = system: K-562 leukemia
SN12C renal = system: SN12C renal
HCT-116 colon = system: HCT-116 colon
SK-MEL-2 melanoma = system: SK-MEL-2 melanoma
NCI-H226 lung = system: NCI-H226 lung
NCI-H522 lung = system: NCI-H522 lung

Structure (SMILES)	TGI (OVCAR-3 ovarian) [µM]	TGI (U251 CNS) [µM]	TGI (NCI-H23 lung) [µM]	TGI (SNB-19 CNS) [µM]	TGI (K-562 leukemia) [µM]	TGI (SN12C renal) [µM]	TGI (HCT-116 colon) [µM]	TGI (SK-MEL-2 melanoma) [µM]	TGI (NCI-H226 lung) [µM]	TGI (NCI-H522 lung) [µM]	GI50 (OVCAR-3 ovarian) [µM]	GI50 (U251 CNS) [µM]	GI50 (NCI-H23 lung) [µM]	GI50 (SNB-19 CNS) [µM]	GI50 (K-562 leukemia) [µM]	GI50 (SN12C renal) [µM]	GI50 (HCT-116 colon) [µM]	GI50 (SK-MEL-2 melanoma) [µM]	GI50 (NCI-H226 lung) [µM]	GI50 (NCI-H522 lung) [µM]
CS(=O)(=O)CC(=O)c1ccccc1	> 100	> 100	> 100	> 100	> 100	> 100	> 100	> 100	> 100	> 100	–	–	–	–	–	–	–	–	–	–
O=C1OCC2=C1C(c1ccc(Cl)c(Cl)c1)c1cc3c(cc1N2CCO)CCC3 (stereo not given)	0.509	6.29	12.2	15.2	9.71	8.91	6.59	6.89	6.47	0.371	0.145	0.181	0.239	0.324	0.204	0.398	0.234	0.192	0.248	0.11
O=c1ssc(Cl)c1Cl	> 10	> 10	> 10	> 10	9.04	> 10	> 10	> 10	> 10	> 6.78	–	–	–	–	–	–	–	–	–	–
Cc1ccccc1-n1c2nc(=O)n(C)c(=O)c-2nc2ccccc21	6.94	33.2	24.6	28.8	43.6	26.6	28.3	32.5	45	29.4	–	–	–	–	–	–	–	–	–	–
NCOC(=O)Cc1ccc(Br)cc1	> 100	> 100	> 100	> 100	> 100	> 100	> 100	> 100	> 100	> 100	–	–	–	–	–	–	–	–	–	–
COc1ccc(C2=NN(C(=O)c3cc(OC)c(OC)c(OC)c3)C(c3ccc(N(C)C)cc3)C2)cc1 (stereo not given)	4.7	> 100	> 100	> 100	> 100	> 100	–	> 100	> 100	–	0.284	0.473	1	1.84	0.551	2.6	0.439	83.5	1.28	0.352
Cc1ccc(NC(=O)/C(Cl)=C(/Cl)C(=O)O)cc1	32.4	30.9	31.8	> 100	23.5	32.5	28.2	37.6	> 100	6.11	–	–	–	–	–	–	–	–	–	–
Cc1ccc(NC(=O)c2sc3nc4c(cc3c2N)C(=O)CCC4)cc1C	1.6	> 56.7	> 100	> 100	35	> 100	> 100	> 100	> 100	4.88	0.345	0.765	1.41	0.652	0.468	0.797	0.546	0.464	27.3	0.276
O=c1oc2ccc(Br)cc2c(=O)n1-c1ccc(I)cc1F	8.52	19.3	1.89	> 70	> 100	2.79	1.53	0.791	3.36	1.65	0.336	0.375	0.328	0.363	0.389	0.33	0.396	0.252	0.66	0.277
COc1cc(-c2c(C#N)c(N)nc(N3CCOCC3)c2C#N)cc(OC)c1OC	> 100	> 100	–	> 100	> 100	> 100	> 100	> 100	> 100	> 100	68.8	> 100	–	89.9	> 100	> 100	86.5	> 100	> 100	> 100
COc1cc(C(=O)N/N=C/c2ccc(N(C)C)cc2)cc(OC)c1OC	0.605	> 100	> 100	> 100	> 100	> 100	> 100	> 81.3	> 100	0.937	0.259	0.436	0.588	10.6	0.353	1.1	0.392	1.15	4.68	0.161
CC(=O)OC12COC1CC(O)C1(C)C(=O)C(O)C3=C(C)C(O)CC(O)(C(OC(=O)c4ccccc4)C21)C3(C)C (stereo not given)	> 39.2	> 74.3	> 100	> 100	> 100	> 100	> 73.6	6.51	> 100	11.2	–	–	–	–	–	–	–	1.84	–	–
Cc1ccc2c(c1)S(=O)(=O)c1ccc3ccccc3c1N2	> 100	> 100	> 100	> 100	> 100	> 100	> 100	> 100	> 100	> 100	–	–	–	–	–	–	–	–	–	–
CN1CCN(C)C12C=CC=CC21CC1	> 100	> 100	> 100	> 100	> 100	> 100	> 100	> 100	> 100	> 100	–	–	–	–	–	–	–	–	–	–
CC(C)(C)CC(N)=O	> 100	> 100	> 100	> 100	> 100	> 100	> 100	> 100	> 100	> 100	–	–	–	–	–	–	–	–	–	–
Cn1c(NCC(O)CN2CCCC2)cc(=O)n(C)c1=O (stereo not given)	> 100	> 100	> 100	> 100	> 100	> 100	> 100	> 100	> 100	> 100	> 100	> 100	> 100	> 100	> 100	> 100	> 100	> 100	> 100	> 100

Structure (SMILES)	TGI (OVCAR-3 ovarian) [µM]	TGI (U251 CNS) [µM]	TGI (NCI-H23 lung) [µM]	TGI (SNB-19 CNS) [µM]	TGI (K-562 leukemia) [µM]	TGI (SN12C renal) [µM]	TGI (HCT-116 colon) [µM]	TGI (SK-MEL-2 melanoma) [µM]	TGI (NCI-H226 lung) [µM]	TGI (NCI-H522 lung) [µM]	GI50 (OVCAR-3 ovarian) [µM]	GI50 (U251 CNS) [µM]	GI50 (NCI-H23 lung) [µM]	GI50 (SNB-19 CNS) [µM]	GI50 (K-562 leukemia) [µM]	GI50 (SN12C renal) [µM]	GI50 (HCT-116 colon) [µM]	GI50 (SK-MEL-2 melanoma) [µM]	GI50 (NCI-H226 lung) [µM]	GI50 (NCI-H522 lung) [µM]
Clc1ccc(-c2cc(-c3ccccc3)nc(NCCNc3ccnc4cc(Cl)ccc34)n2)cc1	3.36	3.37	3.6	3.59	3.53	3.28	3.41	3.23	3.68	3.78	1.77	1.72	1.76	1.72	1.62	1.74	1.65	1.73	1.57	1.81
O=C1c2ccccc2-c2c1c1ccccc1c(=O)n2CCCNCCCCNCCCN1C(=O)c2ccccc2C2C(=O)c3ccccc3C21 (stereo not given)	0.87	0.767	0.999	1.93	0.727	0.818	0.421	3.82	2.19	50	0.212	0.0756	0.319	0.57	0.182	< 0.005	0.0231	1.04	0.575	9.38
CC#CC1C2CCCC1(CSc1ccccc1)NC(=O)O2 (stereo not given)	> 100	> 100	> 100	> 100	> 100	> 100	> 100	> 100	> 100	> 100	–	–	–	–	–	–	–	–	–	–
Clc1ccc(OCc2nnc3n2N=C(c2ccc(Cl)cc2Cl)CS3)cc1	50.7	41.8	37.9	> 100	> 100	30.6	30.4	45.8	38.9	38.7	17.8	19.5	17.1	28.5	32.5	14.8	13.2	22.1	17.3	19.2
O=C1c2cccc(NCCN=Cc3ccccc3O)c2C(=O)c2c(NCCN=Cc3ccccc3O)cccc21	2.09	4.62	3.2	3.54	5.14	2.05	–	3.67	6	1.38	0.514	0.521	1.01	0.776	0.406	0.269	0.387	1.2	0.571	0.278
O=C(O)c1ccc(C(=O)O)c(C(=O)Nc2ccc3c(c2)C(=O)c2ccccc2-3)c1	> 100	> 100	> 100	> 100	> 100	> 100	> 100	> 100	> 100	> 100	–	–	–	–	–	–	–	–	–	–
c1ccc2c(c1)N=C(c1cccc3ccccc13)CC(c1ccc3c(c1)OCO3)S2 (stereo not given)	> 100	> 100	> 100	> 100	> 100	> 100	> 100	> 100	> 100	> 100	–	–	–	–	–	–	–	–	–	–
COc1ccc(Nc2cc(C)nc(NCCCNc3ccnc4cc(Cl)ccc34)n2)cc1	3.12	2.8	5.78	13.4	2.28	10.8	3.82	3.76	5.17	3.65	1.65	1.39	2.27	3.48	0.495	2.74	1.27	2.19	2.08	2.04
COc1ccc(/C=C2\C=C(c3ccccc3)N(CCc3ccccc3)C2=O)cc1OC	17.8	9.31	> 100	21.5	> 100	21.8	11.6	> 100	30.2	36	4.82	3.2	17	5.08	23.9	4.88	3.09	18.5	4.6	9.8
COc1ccccc1NC(=O)c1nc2ccc([N+](=O)[O-])cc2nc1C	> 100	> 100	> 100	> 100	> 100	> 100	> 100	> 100	> 100	> 100	–	–	–	–	–	–	–	–	–	–
CCN(CC)C1CCC(Nc2c(C(C)=O)cnc3ccc(-c4ccc(O)c(Cl)c4)cc23)CC1 (stereo not given)	3.15	17	3.1	69.6	5.72	> 60	4.59	28.2	22.6	1.71	0.38	1.16	0.474	1.75	0.125	0.45	0.568	4.15	2.16	0.331
CC(=O)OC1CC2C3CCC4C[C@@H](NC(=O)C=C(C)C)CC[C@]4(C)C3CC[C@]2(C)[C@H]1C(C)N(C)C (stereo not given in full)	7.56	5.79	8.56	9.06	2.22	8	2.22	4.58	15	11.4	1.99	1.75	2.55	3.63	0.509	2.4	0.854	2.31	3.6	2.78
CC(=O)c1cc(C(=O)c2ccc3c(c2)Sc2ccccc2N3)c2cc(C)ccn12	0.112	> 100	> 100	> 100	> 100	> 100	> 100	> 100	> 100	> 100	0.0323	0.138	0.237	0.183	0.041	0.479	0.0414	81.4	3.91	0.0412
NC(N)=N/N=C/c1ccc(-c2ccc(-c3cc(Cl)cc(Cl)c3)s2)cc1	3.27	4.04	3.88	3.73	1.79	3.48	2.99	4.77	5.99	4.45	1.71	1.89	1.9	1.85	0.431	1.76	1.31	2.08	2.33	1.85
NNC(=O)N/N=C1\C(=O)N(c2ccc(Cl)c(Cl)c2)C(=O)C(=O)C1c1nc2ccccc2s1 (stereo not given)	> 100	> 100	> 100	> 100	–	> 100	> 100	> 100	> 100	> 100	–	–	–	–	–	–	–	–	–	–
